Assay results from ChEMBL document CHEMBL1201862, “PubChem BioAssay data set” (2004).
Calls of active or inactive are those of the source.

Experiments:
[1] = viability of PTEN-deleted HCT116 cells – cell-based, HCT116 PTEN knockout, dose response (AID 1047); assay type: functional;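 further: HCT116 colon tumor cells with PTEN knocked out; cells exposed to compound for 60 hours before readout; potency for loss of cell viability measured by luminescence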
[2] = viability of HCT116 lacking mutant beta-catenin – cell-based, human colon tumor, dose response (AID 1045); assay type: functional;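 further: HCT116 colon tumor cells with beta catenin knocked out; cells exposed to compound for 60 hours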
[3] = target: Sphingosine 1-phosphate receptor 2 (Homo sapiens, UniProt O95136); assay: Dose Response Cell Based Assay for Agonists of the S1P2 Receptor. [Related pubchem assays: 729, 736, 843 ]; assay type: functional
Protein RecA = target: T1, Protein RecA (Mycobacterium tuberculosis, UniProt P9WHJ3); assay: Fluorescence Cell-Free Homogeneous Dose Retest to Identify Inhibitors of RecA-Intein Splicing Activity. [Related pubchem assays (depositor defined):AID2097, AID2223, AID489010, AID492950]; assay type: functional
T1 sequence (P9WHJ3 whole entry): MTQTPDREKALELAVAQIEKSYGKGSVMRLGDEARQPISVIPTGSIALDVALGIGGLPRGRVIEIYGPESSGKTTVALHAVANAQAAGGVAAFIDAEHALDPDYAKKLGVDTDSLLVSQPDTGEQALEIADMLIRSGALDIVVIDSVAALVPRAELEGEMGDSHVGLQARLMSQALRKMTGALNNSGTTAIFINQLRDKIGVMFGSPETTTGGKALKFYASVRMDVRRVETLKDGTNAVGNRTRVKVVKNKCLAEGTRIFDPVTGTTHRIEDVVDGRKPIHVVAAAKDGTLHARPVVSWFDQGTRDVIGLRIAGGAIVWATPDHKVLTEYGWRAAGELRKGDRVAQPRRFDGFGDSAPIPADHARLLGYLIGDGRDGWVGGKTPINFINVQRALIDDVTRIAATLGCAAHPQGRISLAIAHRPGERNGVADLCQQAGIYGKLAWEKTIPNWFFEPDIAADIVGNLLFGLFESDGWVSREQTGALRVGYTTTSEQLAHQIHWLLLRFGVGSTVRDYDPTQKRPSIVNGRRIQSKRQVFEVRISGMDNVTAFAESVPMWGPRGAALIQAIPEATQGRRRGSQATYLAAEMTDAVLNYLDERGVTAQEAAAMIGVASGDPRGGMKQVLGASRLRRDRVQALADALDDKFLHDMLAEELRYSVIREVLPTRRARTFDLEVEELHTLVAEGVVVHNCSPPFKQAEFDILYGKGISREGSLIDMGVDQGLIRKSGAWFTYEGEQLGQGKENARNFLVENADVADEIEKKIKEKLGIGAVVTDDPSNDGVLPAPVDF

[4] = M. tuberculosis H37Rv growth inhibitors, H37Rv strain (AID 1626); assay type: functional
[5] = target: T2, RNA-binding protein pos-1 (Caenorhabditis elegans, UniProt G5EF15); assay: disruptors of C. elegans POS-1 RNA interaction – biochemical, fluorescence polarization, dose response (AID 1964);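 further: purified POS-1 fused to maltose binding protein made in E. coli; potency of compounds blocking POS-1 binding to fluorescent RNA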
T2 sequence (G5EF15 whole entry): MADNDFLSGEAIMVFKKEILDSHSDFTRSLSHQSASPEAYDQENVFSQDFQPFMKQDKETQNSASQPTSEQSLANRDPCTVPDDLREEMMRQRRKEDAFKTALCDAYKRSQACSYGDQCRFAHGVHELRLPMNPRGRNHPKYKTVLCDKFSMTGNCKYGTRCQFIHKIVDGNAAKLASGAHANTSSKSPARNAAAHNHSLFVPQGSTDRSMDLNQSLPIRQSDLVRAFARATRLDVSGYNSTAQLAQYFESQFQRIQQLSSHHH

[6] = target: T3, Zinc finger protein mex-5 (Caenorhabditis elegans, UniProt Q9XUB2); assay: potency of MEX-5 RNA-binding blockers – biochemical, C. elegans, fluorescence polarization, dose response (AID 1960)
T3 sequence (Q9XUB2 whole entry): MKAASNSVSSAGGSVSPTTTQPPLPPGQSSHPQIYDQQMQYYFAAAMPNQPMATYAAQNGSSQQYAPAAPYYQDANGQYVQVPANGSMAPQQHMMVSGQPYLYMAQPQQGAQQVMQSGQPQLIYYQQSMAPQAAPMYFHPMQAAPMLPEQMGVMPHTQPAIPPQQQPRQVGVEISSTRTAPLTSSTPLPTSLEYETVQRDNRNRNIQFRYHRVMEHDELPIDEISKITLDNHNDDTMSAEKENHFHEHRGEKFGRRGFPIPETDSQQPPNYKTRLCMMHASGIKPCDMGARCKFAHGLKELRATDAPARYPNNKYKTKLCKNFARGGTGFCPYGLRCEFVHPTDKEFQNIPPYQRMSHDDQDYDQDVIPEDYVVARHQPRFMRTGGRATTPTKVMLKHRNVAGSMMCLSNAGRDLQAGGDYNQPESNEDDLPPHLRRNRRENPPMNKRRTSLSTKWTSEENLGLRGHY

[7] = antiviral protection against BTV-induced cell death – arbovirus, BSR cells, confirmation (AID 1250); assay type: functional;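 further: protection from viral cytopathic effect measured as cell viability by ATP luminescence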
[8] = target: FAD-linked sulfhydryl oxidase ALR (Homo sapiens, UniProt P55789); assay: ALR-catalysed DTT oxidation blockers – biochemical, H2O2 detection, luminescence, cherry-pick, dose response (AID 493248)
Estrogen receptor = target: T4, Estrogen receptor (Homo sapiens, UniProt P03372);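 further: potency for inhibiting coactivator peptide recruitment to the receptor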
T4 sequence (P03372 whole entry): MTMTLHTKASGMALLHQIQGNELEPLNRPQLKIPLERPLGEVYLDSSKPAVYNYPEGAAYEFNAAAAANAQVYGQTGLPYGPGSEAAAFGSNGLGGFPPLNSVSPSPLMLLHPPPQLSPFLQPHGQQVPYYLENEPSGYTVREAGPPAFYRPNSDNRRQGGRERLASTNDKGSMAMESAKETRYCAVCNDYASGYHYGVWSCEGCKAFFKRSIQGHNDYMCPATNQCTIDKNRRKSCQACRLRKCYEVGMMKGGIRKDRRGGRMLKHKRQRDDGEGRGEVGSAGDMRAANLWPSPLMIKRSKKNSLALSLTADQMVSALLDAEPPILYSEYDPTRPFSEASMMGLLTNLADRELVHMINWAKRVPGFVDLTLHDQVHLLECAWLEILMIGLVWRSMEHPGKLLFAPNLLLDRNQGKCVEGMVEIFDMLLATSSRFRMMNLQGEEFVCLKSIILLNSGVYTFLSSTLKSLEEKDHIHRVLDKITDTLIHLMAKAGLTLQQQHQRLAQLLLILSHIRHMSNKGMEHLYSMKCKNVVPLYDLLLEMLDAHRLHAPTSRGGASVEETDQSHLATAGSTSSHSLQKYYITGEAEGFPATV

[9] = target: T5, Heat shock factor protein 1 (Mus musculus, UniProt P38532); assay: enhancement of HSF1-driven luciferase signal – cell-based, NIH3T3, luminescence, dose retest, confirmation (AID 435004); assay type: functional;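 further: stress induced by proteasome inhibitor MG132 added 30 min after compound; luciferase reporter driven by HSF1 response element in NIH3T3 cells; actives raise luminescence as potentiators of the MG132 stress response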
T5 sequence (P38532 whole entry): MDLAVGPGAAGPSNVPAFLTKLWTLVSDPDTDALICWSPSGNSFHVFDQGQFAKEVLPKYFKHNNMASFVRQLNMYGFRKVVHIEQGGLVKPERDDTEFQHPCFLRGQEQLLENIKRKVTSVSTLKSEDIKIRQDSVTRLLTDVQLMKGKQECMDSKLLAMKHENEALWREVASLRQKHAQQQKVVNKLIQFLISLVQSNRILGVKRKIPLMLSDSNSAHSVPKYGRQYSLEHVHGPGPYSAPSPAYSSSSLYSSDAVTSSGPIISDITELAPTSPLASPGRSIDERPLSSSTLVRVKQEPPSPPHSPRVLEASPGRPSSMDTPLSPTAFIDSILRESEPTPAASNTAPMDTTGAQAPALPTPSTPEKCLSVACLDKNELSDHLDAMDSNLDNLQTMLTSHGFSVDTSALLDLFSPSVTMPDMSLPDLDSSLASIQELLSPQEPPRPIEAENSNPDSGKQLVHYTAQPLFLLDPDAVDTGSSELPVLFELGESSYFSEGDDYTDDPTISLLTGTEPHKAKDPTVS

[10] = NIH-3T3 fibroblast cytotoxicity, dose response, cytotoxicity control, cell-based, fluorescence, Alamar Blue, secondary assay (AID 2327); assay type: functional;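 further: NIH-3T3 mouse fibroblasts cultured with fluconazole at 8 µg/mL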
[11] = fluconazole-exposed Candida albicans growth modulators – fluorescence, retest, confirmation (AID 2467); assay type: functional, cell-based
[12] = Trypanosoma cruzi growth suppression in host cells – NIH3T3 host cells, beta-gal luminescence, confirmation (AID 2044); assay type: functional, cell-based;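 further: intracellular parasites grown in NIH/3T3 mouse fibroblasts as host cells; luminescent beta-galactosidase reporter signal from transgenic T. cruzi replicating inside host cells; inhibitors lower the luminescence signal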
[13] = NIH3T3 cell viability loss – ATP luminescence, mouse fibroblasts, counter-screen, dose response (AID 2010); assay type: functional, cell-based;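 further: cells exposed to compound for about 90 hours before reading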
Jurkat = assay: blockers of NF-kB activation in T cells – Jurkat, luciferase reporter, luminescence, B- and T-cell, dose response (AID 489004); assay type: functional, cell-based; settings: Homo sapiens;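 further: NF-kB luciferase reporter Jurkat cells stimulated with PMA plus ionomycin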
[14] = HEK-293T viability loss, compound-treated – cell-based, uHTS hits, cytotoxicity control for B/T-cell NF-kB inhibitor project, dose response (AID 489019); assay type: functional;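 further: IC50 reflects cytotoxicity as loss of cell viability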
[15] = target: T6, Microphthalmia-associated transcription factor (Homo sapiens, UniProt O75030); assay: reducers of TRPM1 reporter luminescence, concentration series – cell-based, SK-MEL-5, cherry-picked, set 3, MITF inhibitor project, dose response (AID 493073); assay type: functional;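 further: SK-MEL-5 melanoma cells with luciferase driven by the MITF target TRPM1 promoter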
T6 sequence (O75030 whole entry): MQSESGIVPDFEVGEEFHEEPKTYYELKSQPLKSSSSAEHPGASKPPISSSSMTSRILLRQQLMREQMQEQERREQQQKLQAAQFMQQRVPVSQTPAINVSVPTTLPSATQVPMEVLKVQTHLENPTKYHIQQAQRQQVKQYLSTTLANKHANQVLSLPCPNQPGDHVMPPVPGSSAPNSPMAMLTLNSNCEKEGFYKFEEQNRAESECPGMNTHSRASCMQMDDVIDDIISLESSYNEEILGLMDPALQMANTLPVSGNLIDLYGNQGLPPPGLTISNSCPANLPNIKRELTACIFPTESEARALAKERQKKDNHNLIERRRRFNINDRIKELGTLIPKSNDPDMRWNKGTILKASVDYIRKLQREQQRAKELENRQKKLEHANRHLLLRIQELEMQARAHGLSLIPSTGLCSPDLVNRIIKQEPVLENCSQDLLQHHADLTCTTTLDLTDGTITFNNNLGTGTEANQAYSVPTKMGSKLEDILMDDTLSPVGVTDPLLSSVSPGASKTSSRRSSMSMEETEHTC

INS1 = assay: INS-1E survival protection against cytokine death – cell-based, luminescence, retest, dose response (AID 449756); assay type: functional; settings: Rattus norvegicus;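 further: cell death triggered by IL-1 beta plus TNF-alpha plus IFN-gamma mixture; protective hits raise ATP signal compared with cytokine alone wells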
[16] = target: T7, COUP transcription factor 2 (Homo sapiens, UniProt P24468); assay: Luminescence-based cell-based high throughput dose response assay to identify inhibitors of COUP-TFII (NR2F2).; assay type: functional;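 further: HEK293 cells transiently cotransfected with COUP-TFII expression vector and reporter; luciferase reporter luminescence driven by COUP-TFII from the pX2-168 reporter plasmid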
T7 sequence (P24468 whole entry): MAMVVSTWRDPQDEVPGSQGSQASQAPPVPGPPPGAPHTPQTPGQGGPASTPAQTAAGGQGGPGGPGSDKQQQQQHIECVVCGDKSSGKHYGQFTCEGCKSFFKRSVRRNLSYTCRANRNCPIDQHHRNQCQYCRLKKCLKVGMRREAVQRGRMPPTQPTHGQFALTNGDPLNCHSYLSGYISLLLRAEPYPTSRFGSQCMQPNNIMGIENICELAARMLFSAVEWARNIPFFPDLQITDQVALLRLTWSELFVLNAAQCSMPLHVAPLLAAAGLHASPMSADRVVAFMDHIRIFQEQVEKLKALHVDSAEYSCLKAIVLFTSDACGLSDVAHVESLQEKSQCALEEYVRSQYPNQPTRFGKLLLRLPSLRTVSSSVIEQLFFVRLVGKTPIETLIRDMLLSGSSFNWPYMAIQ

[17] = target: Luciferin 4-monooxygenase (Photinus pyralis, UniProt P08659); assay: inhibition of purified Photinus pyralis luciferase – biochemical, luminescence, dose response (AID 1891)
[18] = Luminescence Cell-Based Dose Confirmation HTS to Identify Inhibitors of Platelet Dense Granule Release. [Related pubchem assays: 1663 (Primary HTS), 1678 (Summary of Project)]; assay type: functional

Sequence of Sphingosine 1-phosphate receptor 2 (O95136 whole entry): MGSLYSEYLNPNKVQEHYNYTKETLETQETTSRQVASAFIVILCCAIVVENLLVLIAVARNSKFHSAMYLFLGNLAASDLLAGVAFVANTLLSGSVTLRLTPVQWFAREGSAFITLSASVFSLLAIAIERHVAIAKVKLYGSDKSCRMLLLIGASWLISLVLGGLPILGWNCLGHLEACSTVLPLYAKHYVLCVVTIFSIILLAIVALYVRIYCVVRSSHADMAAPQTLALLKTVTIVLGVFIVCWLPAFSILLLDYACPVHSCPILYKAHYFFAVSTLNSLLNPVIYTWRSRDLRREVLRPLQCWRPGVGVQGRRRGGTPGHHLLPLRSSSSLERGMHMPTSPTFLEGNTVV
Sequence of Luciferin 4-monooxygenase (P08659 whole entry): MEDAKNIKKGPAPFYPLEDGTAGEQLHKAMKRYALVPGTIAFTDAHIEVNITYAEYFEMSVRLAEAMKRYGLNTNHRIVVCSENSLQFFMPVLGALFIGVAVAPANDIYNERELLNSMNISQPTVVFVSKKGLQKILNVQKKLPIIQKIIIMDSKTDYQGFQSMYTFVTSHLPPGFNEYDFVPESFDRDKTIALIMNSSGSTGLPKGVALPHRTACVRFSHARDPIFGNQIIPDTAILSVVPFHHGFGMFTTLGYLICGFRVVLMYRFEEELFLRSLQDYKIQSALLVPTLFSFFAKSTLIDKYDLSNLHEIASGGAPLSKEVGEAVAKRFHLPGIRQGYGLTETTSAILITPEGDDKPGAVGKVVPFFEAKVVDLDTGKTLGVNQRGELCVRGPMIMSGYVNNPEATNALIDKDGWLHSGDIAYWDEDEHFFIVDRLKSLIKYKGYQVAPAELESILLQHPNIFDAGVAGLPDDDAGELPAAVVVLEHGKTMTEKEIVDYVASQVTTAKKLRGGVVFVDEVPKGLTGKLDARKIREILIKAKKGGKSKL
Sequence of FAD-linked sulfhydryl oxidase ALR (P55789 whole entry): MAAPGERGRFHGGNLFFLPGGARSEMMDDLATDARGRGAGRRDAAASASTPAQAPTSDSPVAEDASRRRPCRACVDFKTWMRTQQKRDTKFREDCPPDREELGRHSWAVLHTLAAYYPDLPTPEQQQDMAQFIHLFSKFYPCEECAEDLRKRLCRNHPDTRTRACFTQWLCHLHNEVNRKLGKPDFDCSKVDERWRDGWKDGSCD

In the case of `CCC(C)NC(=O)c1c(N)n(Cc2ccc3c(c2)OCO3)c2nc3ccccc3nc12` (stereo unspecified), the EC50 [1] is reported as 15.3 µM (active), the EC50 [2] is reported as 14.2 µM (active) and the EC50 [3] is reported as 2.41 µM (active). For the same compound, the EC50 (Protein RecA) was > 380 µM (inconclusive).

In the case of `CCOC(=O)/C=C/C(=O)Nc1nccs1`, the IC50 [4] is reported as > 100 µM (active).

In the case of `CC(C)CC1=NN2C(=N)/C(=C/c3c[nH]c4ccccc34)C(=O)N=C2S1`, the EC50 [5] is reported as 34.2 µM (inconclusive), the EC50 [6] is reported as 47.4 µM (active) and the IC50 [7] is reported as 32.1 µM (active).

For `Cc1cccc(C(=O)Nc2scc(CC(C)C)c2C(=O)O)c1`, the IC50 [7] was 32.3 µM (active) and the AC50 [8] was 0.016 µM (active).

With `COc1cc(-c2cc(C(=O)Nc3nc4ccccc4s3)c3ccccc3n2)cc(OC)c1OC` the IC50 [4] was > 100 µM (active).

With `CC(=O)c1c(C)n(C)c2ccc(O)cc12` the IC50 [4] was > 100 µM (active).

For `COc1ccc(/C=C/C(O)=C2/C(=O)N(C)C3(C)CC2c2ccccc2O3)cc1` (stereo unspecified), the IC50 (Estrogen receptor) was > 50 µM (not active), the EC50 [1] was 10.7 µM (active) and the EC50 [2] was 8.06 µM (active). For the same compound, the EC50 [9] was > 260 µM (inactive).

In the case of `COc1ccc2cc(S(=O)(=O)NCCCN3CCOCC3)ccc2c1`, the EC50 [3] is reported as > 50 µM (not active).

For `CN(C)c1cc[n+](CC(=O)c2ccc(-c3ccccc3)cc2)cc1`, the EC50 [10] was > 160 µM (inactive), the EC50 [11] was 2 µM (active) and the EC50 [12] was 0.515 µM (active). For the same compound, the EC50 [13] was > 60 µM (not active), the IC50 (Jurkat) was 4.41 µM (active) and the IC50 [14] was > 80 µM (inactive). For the same compound, the AC50 [15] was 2.6 µM (active), the AC50 (INS1) was 1.55 µM (active) and the IC50 [16] was 10.2 µM (inactive).

For `COC(=O)c1ccc2c(=O)n(CC3CCCO3)c(SCC(=O)Nc3ccccc3Cl)nc2c1` (stereo unspecified), the IC50 (Estrogen receptor) was 20.9 µM (active).

For `COC(=O)c1oc2ccc(Br)cc2c1NC(=O)CCCN1C(=O)c2ccccc2C1=O`, the IC50 (Estrogen receptor) was 42.3 µM (not active).

With `O=C1CCCC(=O)C1=CNCCc1ccccc1` the EC50 [17] was > 112 µM (not active), the EC50 [18] was > 112 µM (not active) and the EC50 [3] was > 50 µM (not active).
